Results on three molecules are retold here after US11435363B2, “Relevance of achieved levels of markers of systemic inflammation following treatment” (The Brigham and Women's Hospital, Inc., priority 2004, dated 2022).

SMILES strings stand for the structures.

In assay [1] the test system is acute coronary syndrome patients. Put plainly: PROVE IT-TIMI 22: recurrent myocardial infarction or coronary death after day 30. It is filed as in vivo, human. The note with it: for recurrent event rate, achieved LDLC <70 mg/dL and achieved CRP greater than 2.0 mg/L / recurrent event rate, achieved LDLC <70 mg/dL and achieved CRP less than 2.0 mg/L: recurrent myocardial infarction or coronary death, P for difference between agents=0.7.
Source text: (§1) In total, 4,162 patients who had been hospitalized within the preceding 10 days for acute coronary syndrome and provided written informed consent were enrolled at 349 sites in eight countries. Approximately two-thirds had acute myocardial infarction and the remainder had high-risk unstable angina.
(§2) For this analysis, we defined achieved LDLC and achieved CRP levels as those values obtained at the 30 day follow-up, a period of time adequate for the effect of statin therapy to be seen for both LDLC and CRP and a time when any residual effects of ischemia on each parameter would no longer be evident. Of the total cohort, 3,745 participants (90.0 percent) were alive and free of a recurrent event at day 30 and underwent evaluation for both LDLC and CRP at that time. All laboratory measurements were made in core facilities and a validated assay for high sensitivity CRP used (Denka Seiken).
(§3) Spearman correlation coefficients were used to evaluate the relationship between achieved LDLC and achieved CRP. We then used a multi-stage process to address the impact of achieved LDLC and achieved CRP levels on rates of recurrent myocardial infarction or fatal coronary events that occurred after day 30 in the study. First, we divided the study population into increasing quartiles of achieved LDLC and achieved CRP and sought evidence that these levels were associated with increased risk of recurrent myocardial infarction or coronary death, both in age-adjusted analyses and after further adjustment for gender, smoking status (current/non-smoker), diabetes, body mass index (kg/m^2), and history of hypertension. […] To address the relative impact of achieved CRP across LDLC strata, we repeated this process after dividing the study cohort into four groups on the basis of achieved LDLC levels and achieved CRP levels above or below the respective values of 70 mg/dL and 2.0 mg/L. A test for trend across groups was performed assigning a score of 0 to those with low levels of both, a score of 1 to the two intermediate groups, and a score of 2 to those with high levels of both. Similar analyses were performed after stratification of the study group according to atorvastatin or pravastatin allocation. Estimates of hazard ratios were obtained using Cox proportional-hazards models.

For a further assay, the system named is CRP. The note with it: for median CRP level at day 30 / median CRP level at end of study: atorvastatin 80 mg/day or pravastatin 40 mg/day orally; for median CRP level at day 30 / median CRP level at end of study / proportion of treated patients who achieved CRP levels below 2.0 at day 30: P<0.001; for median CRP level at end of study: end of study (mean 24 months); for proportion of treated patients who achieved CRP levels below 2.0 at day 30: atorvastatin 80 mg or pravastatin 40 mg.

The test system of the next assay is LDLC. Briefly: PROVE IT-TIMI 22: LDLC levels on statin therapy. It is filed as in vivo, human. The note with it: for proportion of allocated patients who achieved an LDLC goal of <70 mg/dL: day 30, atorvastatin 80 mg or pravastatin 40 mg, P<0.001.
The test system of assay [2] is acute coronary syndrome patients. The note with it: overall trial result, reference (7); cited from earlier work.

Source text for CRP: as §1, §2, §3
Source text for LDLC: as §1, §2
Spearman correlation coefficients were used to evaluate the relationship between achieved LDLC and achieved CRP. We then used a multi-stage process to address the impact of achieved LDLC and achieved CRP levels on rates of recurrent myocardial infarction or fatal coronary events that occurred after day 30 in the study. First, we divided the study population into increasing quartiles of achieved LDLC and achieved CRP and sought evidence that these levels were associated with increased risk of recurrent myocardial infarction or coronary death, both in age-adjusted analyses and after further adjustment for gender, smoking status (current/non-smoker), diabetes, body mass index (kg/m^2), and history of hypertension. […] To address the relative impact of achieved CRP across LDLC strata, we repeated this process after dividing the study cohort into four groups on the basis of achieved LDLC levels and achieved CRP levels above or below the respective values of 70 mg/dL and 2.0 mg/L. A test for trend across groups was performed assigning a score of 0 to those with low levels of both, a score of 1 to the two intermediate groups, and a score of 2 to those with high levels of both. […]

On to `CC[C@H](C)C(=O)O[C@H]1C[C@H](O)C=C2C=C[C@H](C)[C@H](CC[C@@H](O)C[C@@H](O)CC(=O)O)[C@H]21` [pravastatin], for which, in assay [1], the “recurrent event rate, achieved LDLC <70 mg/dL and achieved CRP greater than 2.0 mg/L” value was found to be 3.4 per 100 person-years; the “recurrent event rate, achieved LDLC <70 mg/dL and achieved CRP less than 2.0 mg/L” value is 2.5 per 100 person-years. In the assay with CRP, the “median CRP level at day 30” value stood at 2.3 mg/L, the “median CRP level at end of study” value is 2.1 mg/1 and the “proportion of treated patients who achieved CRP levels below 2.0 at day 30” value amounted to 44.9%. Moreover, the “proportion of allocated patients who achieved an LDLC goal of <70 mg/dL” value with LDLC came to 21.7%.
With `CC(C)c1c(C(=O)Nc2ccccc2)c(-c2ccccc2)c(-c2ccc(F)cc2)n1CC[C@@H](O)C[C@@H](O)CC(=O)O` [atorvastatin], the “fully adjusted hazard ratio for atorvastatin vs pravastatin, clinical outcomes” value in assay [1] (after accounting for achieved LDLC and achieved CRP, 95% CI 0.75 to 1.34, P=0.9) is recorded as 1.00. For the same molecule, in assay [1], the “recurrent event rate, achieved LDLC <70 mg/dL and achieved CRP greater than 2.0 mg/L” value turned out to be 3.1 per 100 person-years; the “recurrent event rate, achieved LDLC <70 mg/dL and achieved CRP less than 2.0 mg/L” value was determined as 2.3 per 100 person-years. Moreover, in the assay with CRP, the “median CRP level at day 30” value amounted to 1.6 mg/L, the “median CRP level at end of study” value is listed as 1.3 mg/1 and the “proportion of treated patients who achieved CRP levels below 2.0 at day 30” value was 57.5%. The “LDLC levels compared with the pravastatin group” value with LDLC (day 30, 4 months and end of study, identical at randomization) was “significantly lower”. Besides, the “proportion of allocated patients who achieved an LDLC goal of <70 mg/dL” value with LDLC was determined as 72.3%. For the same molecule, in assay [2], the “overall clinical outcome in the PROVE IT-TIMI 22 trial” value is on record as “superior to pravastatin overall”.
With `COc1c(N2CCNC(C)C2)c(F)cc2c(=O)c(C(=O)O)cn(C3CC3)c12` (stereo not shown) [gatifloxicin], the “effect on CRP levels” value with CRP (gatifloxicin versus placebo allocation in this population) is recorded as “no significant effect on CRP levels”.
